From patent publication US20260130933A1, “PHARMACEUTICAL COMPOSITION FOR PREVENTION OR TREATMENT OF NEPHROPATHY AND/OR DIABETES MELLITUS, COMPRISING ENAVOGLIFLOZIN” (DAEWOONG PHARMACEUTICAL CO., LTD., priority 2022, published 2026)

Assay: Example 3: phase 3 trial, enavogliflozin 0.3 mg vs dapagliflozin 10 mg once a day for 24 weeks added to metformin and gemigliptin in patients with type 2 diabetes (same endpoints, rescue drug)
Assay type: in vivo, human
Settings: for Subjects achieving therapeutic glycemic response 2, %: response 2 = HbA1c change >0.7% or HbA1c <7%; for Subjects achieving therapeutic glycemic response 3, %: response 3 = HbA1c change >1% or HbA1c <7%
Protocol: 1) when Metformin (≥1,000 mg/Day) was Administered at a Constant Dose for at Least 8 Weeks Prior to Pre-Visit (Pre-Screening) • Metformin (≥1,000 mg/day) and gemigliptin (50 mg/day) were co-administered during the 8-week stabilization period. […] 4) when Metformin (≥1,000 mg/Day) and Gemigliptin (50 mg/Day) were Co-Administered at Constant Doses for at Least 8 Weeks Prior to Pre-Visit (Prescreening) • Without a separate stabilization period, Pre-visit (pre-screening) was Visit 1 (screening).
Subjects who met the inclusion/exclusion criteria continued to receive metformin and gemigliptin while receiving a placebo of the clinical trial drug in a single-blind (subject-blinded) state for a 2-week run-in period.
Here, the randomized subjects were stratified according to the administration therapy (co-administration with two or less agents (one or two agents) or three or more agents) of a conventional hypoglycemic agent (before washout of another hypoglycemic agent) within 24 weeks prior to obtaining written informed consent and by an HbA1c value (<8% or ≥8%) at Visit 1 (screening) measured in the central laboratory.
The randomized subjects were administered two tablets of the clinical trial drug corresponding to each administration group once a day, and then visited the institution at weeks 6, 12, 18, and 24 during the 24-week administration period to conduct efficacy and safety assessments. In addition, during the clinical trial period, they were instructed to exercise regularly and control their diet without changing their daily life patterns.
• 1) Change in HbA1c at week 24 after administration of clinical trial drug compared to Visit 2 (randomization)
• 1) Change in HbA1c at each time point of weeks 6, 12, and 18 after administration of clinical trial drug compared to Visit 2 (randomization) • 2) Change in FPG at each time point of weeks 6, 12, 18, and 24 after administration of clinical trial drug compared to Visit 2 (randomization) • 3) Proportion of subjects achieving HbA1c<7% at each time point of weeks 6, 12, 18, and 24 after administration of clinical trial drug • 4) Proportion of subjects achieving HbA1c<6.5% at each time point of weeks 6, 12, 18, and 24 after administration of clinical trial drug • 5) Proportion of subjects achieving therapeutic response (HbA1c change (HbA1c at Visit 2—HbA1c at each evaluation time point)>0.5% or HbA1c<7% at each evaluation time point compared to Visit 2 (randomization)) at each time point of weeks 6, 12, 18, and 24 after administration of clinical trial drug • 6) Proportion of subjects achieving therapeutic response (HbA1c change (HbA1c at Visit 2—HbA1c at each evaluation time point)>0.7% or HbA1c<7% at each evaluation time point compared to Visit 2 (randomization)) at each time point of weeks 6, 12, 18, and 24 after administration of clinical trial drug • 7) Proportion of subjects achieving therapeutic response (HbA1c change (HbA1c at Visit 2—HbA1c at each evaluation time point)>1% or HbA1c<7% at each evaluation time point compared to Visit 2 (randomization)) at each time point of weeks 6, 12, 18, and 24 after administration of clinical trial drug

[1] = week 18, per-protocol set, enavogliflozin 0.3 mg, dapagliflozin 10 mg
[2] = week 24, modified per-protocol set 1, enavogliflozin 0.3 mg vs dapagliflozin 10 mg
[3] = week 24, modified per-protocol set 1, enavogliflozin 0.3 mg, dapagliflozin 10 mg
[4] = week 24, modified per-protocol set 2
[5] = week 24, modified per-protocol set 2, enavogliflozin 0.3 mg, dapagliflozin 10 mg
[6] = week 24, per-protocol set, enavogliflozin 0.3 mg vs dapagliflozin 10 mg
[7] = week 24, per-protocol set, enavogliflozin 0.3 mg, dapagliflozin 10 mg

## OC[C@H]1O[C@@H](c2cc(Cc3ccc(C4CC4)cc3)c(Cl)c3c2CCO3)[C@H](O)[C@@H](O)[C@@H]1O [Enavogliflozin, (2S,3R,4R,5S,6R)-2-(7-chloro-6 (4-cyclopropylbenzyl)-2,3-dihydrobenzofuran-4-yl)-6-(hydroxymethyl)tetrahydro-2H-pyran-3,4,5-triol]
[1]
  HbA1c, Median: 6.87%
  Subjects achieving HbA1c target of <6.5%, (%): 14.53%
  Subjects achieving HbA1c target of <7%, %: 63.25%
  body weight, Median: 65.40 kg
  Subjects achieving therapeutic glycemic response 2, %: 77.78%
  Subjects achieving therapeutic glycemic response 3, %: 74.36%
Week 24
  FPG change from baseline, LS mean (SE): −27.21(1.81) mg/dL
  HDL-C change from baseline, LS mean (SE): 4.32(0.71) mg/dL
  HOMA-IR change from baseline, LS mean (SE): −1.09(0.11)
  HOMA-β change from baseline, LS mean (SE): 1.09(4.79)
  HbA1c change from baseline, LS mean (SE): −0.92(0.05) % p
  HbA1c change from baseline, Mean (SD): −0.93(0.70) % p
  LDL-C change from baseline, LS mean (SE): 0.85(1.89) mg/dL
  UACR change from baseline, LS mean (SE): −15.34 (3.93) g/kg
  UGCR change from baseline, LS mean (SE): 60.22(2.31) mg/mg
  adiponectin change from baseline, LS mean (SE): 1.42(0.35) μg/mL
  body weight change from baseline, LS mean (SE): −3.15(0.23) kg
  diastolic blood pressure change from baseline, LS mean (SE): −2.55(0.72) mmHg
  fasting C-peptide change from baseline, LS mean (SE): −0.09(0.02) ng/ml
  leptin change from baseline, LS mean (SE): −1.46(0.52) ng/mL
  systolic blood pressure change from baseline, LS mean (SE): −4.49(0.96) mmHg
  total cholesterol change from baseline, LS mean (SE): 4.48(2.07) mg/dL
  triglyceride change from baseline, LS mean (SE): −8.22(4.01) mg/dL
Week 24, FAS, vs dapagliflozin
  Odds ratio for administering the rescue drug: 0.36
Week 24, vs dapagliflozin
  FPG change from baseline, LS mean difference: -3.49 mg/dL
  HDL-C change from baseline, LS mean difference: -0.08 mg/dL
  HOMA-IR change from baseline, LS mean difference: −0.16
  HOMA-β change from baseline, LS mean difference: −4.69
  HbA1c change from baseline, LS mean difference: −0.06 % p
  LDL-C change from baseline, LS mean difference: -2.27 mg/dL
  Odds ratio for achieving HbA1c<6.5%: 1.27
  Odds ratio for achieving HbA1c<7%: 1.17
  Odds ratio, therapeutic response (HbA1c change >0.5% or HbA1c<7%): 1.15
  Odds ratio, therapeutic response (HbA1c change >0.7% or HbA1c<7%): 0.98
  Odds ratio, therapeutic response (HbA1c change >1% or HbA1c<7%): 1.22
  UACR change from baseline, LS mean difference: 0.79 g/kg
  UGCR change from baseline, LS mean difference: 16.71 mg/mg
  adiponectin change from baseline, LS mean difference: 0.49 µg/mL
  body weight change from baseline, LS mean difference: -0.15 kg
  diastolic blood pressure change from baseline, LS mean difference: −0.66 mmHg
  fasting C-peptide change from baseline, LS mean difference: -0.01 ng/mL
  leptin change from baseline, LS mean difference: -0.89 ng/mL
  systolic blood pressure change from baseline, LS mean difference: −0.22 mmHg
  total cholesterol change from baseline, LS mean difference: -1.09 mg/dL
  triglyceride change from baseline, LS mean difference: 0.56 mg/dL
[2]
  Change from baseline in HDL-C, ANCOVA LS mean difference: -0.08 mg/dL
  Change from baseline in LDL-C, ANCOVA LS mean difference: -2.27 mg/dL
  Change from baseline in total cholesterol, ANCOVA LS mean difference: -1.09 mg/dL
  Change from baseline in triglycerides, ANCOVA LS mean difference: 0.56 mg/dL
[3]
  Change from baseline in HDL-C, ANCOVA LS mean: 4.32 mg/dL
  Change from baseline in HDL-C, Mean: 4.53 mg/dL
  Change from baseline in HDL-C, Median: 4.00 mg/dL
  Change from baseline in LDL-C, ANCOVA LS mean: 0.85 mg/dL
  Change from baseline in LDL-C, Mean: 1.75 mg/dL
  Change from baseline in LDL-C, Median: 0.50 mg/dL
  Change from baseline in total cholesterol, ANCOVA LS mean: 4.48 mg/dL
  Change from baseline in total cholesterol, Mean: 5.59 mg/dL
  Change from baseline in total cholesterol, Median: 5.50 mg/dL
  Change from baseline in triglycerides, ANCOVA LS mean: -8.22 mg/dL
  Change from baseline in triglycerides, Mean: -6.05 mg/dL
  Change from baseline in triglycerides, Median: -1.00 mg/dL
  Fasting HDL-C, Mean: 50.58 mg/dL
  Fasting HDL-C, Median: 48.50 mg/dL
  Fasting LDL-C, Mean: 73.15 mg/dL
  Fasting LDL-C, Median: 70.50 mg/dL
  Fasting total cholesterol, Mean: 140.06 mg/dL
  Fasting triglycerides, Mean: 113.01 mg/dL
  Fasting triglycerides, Median: 101.00 mg/dL
  fasting Total cholesterol, Median: 134.00 mg/dL
[4]
  Change from baseline in diastolic blood pressure, ANCOVA LS mean: −2.55 mmHg
  Change from baseline in diastolic blood pressure, LS mean difference (enavogliflozin − dapagliflozin): −0.66 mmHg
  Change from baseline in diastolic blood pressure, Mean: −3.19 mmHg
  Change from baseline in diastolic blood pressure, Median: −3.00 mmHg
  Diastolic blood pressure, Mean: 73.40 mmHg
  Diastolic blood pressure, Median: 73.50 mmHg
Week 24, modified per-protocol set 2, enavogliflozin 0.3 mg vs dapagliflozin 10 mg
  Change from baseline in systolic blood pressure, ANCOVA LS mean difference: −0.22 mmHg
[5]
  Change from baseline in systolic blood pressure, ANCOVA LS mean: −4.49 mmHg
  Change from baseline in systolic blood pressure, Mean: −5.20 mmHg
  Change from baseline in systolic blood pressure, Median: −5.00 mmHg
  Systolic blood pressure, Mean: 122.29 mmHg
  Systolic blood pressure, Median: 121.00 mmHg
Week 24, per-protocol set
  Adiponectin, Mean: 7.62 µg/mL
  Adiponectin, Median: 6.49 µg/mL
  Change from baseline in HOMA-IR, ANCOVA LS mean: −1.09
  Change from baseline in HOMA-IR, LS mean difference (enavogliflozin − dapagliflozin): −0.16
  Change from baseline in HOMA-IR, Mean: −1.07
  Change from baseline in HOMA-IR, Median: −0.80
  Change from baseline in HOMA-β, ANCOVA LS mean: 1.09
  Change from baseline in HOMA-β, LS mean difference (enavogliflozin − dapagliflozin): −4.69
  Change from baseline in HOMA-β, Mean: 2.57
  Change from baseline in HOMA-β, Median: 5.70
  Change from baseline in UACR, ANCOVA LS mean: -15.34 g/kg
  Change from baseline in UACR, LS mean difference (enavogliflozin − dapagliflozin): 0.79 g/kg
  Change from baseline in UACR, Mean: -19.52 g/kg
  Change from baseline in UACR, Median: -1.55 g/kg
  Change from baseline in UGCR, ANCOVA LS mean: 60.22 mg/mg
  Change from baseline in UGCR, LS mean difference (enavogliflozin − dapagliflozin): 16.71 mg/mg
  Change from baseline in UGCR, Mean: 59.39 mg/mg
  Change from baseline in UGCR, Median: 55.98 mg/mg
  Change from baseline in adiponectin, ANCOVA LS mean: 1.42 µg/mL
  Change from baseline in adiponectin, LS mean difference (enavogliflozin − dapagliflozin): 0.49 µg/mL
  Change from baseline in adiponectin, Mean: 1.39 µg/mL
  Change from baseline in adiponectin, Median: 1.11 µg/mL
  Change from baseline in leptin, ANCOVA LS mean: -1.46 ng/mL
  Change from baseline in leptin, LS mean difference (enavogliflozin − dapagliflozin): -0.89 ng/mL
  Change from baseline in leptin, Mean: -1.52 ng/mL
  Change from baseline in leptin, Median: -0.91 ng/mL
  HOMA-IR (insulin resistance), Mean: 1.84
  HOMA-IR (insulin resistance), Median: 1.56
  HOMA-β (beta-cell function), Mean: 45.48
  HOMA-β (beta-cell function), Median: 41.40
  Leptin, Mean: 8.95 ng/mL
  Leptin, Median: 6.03 ng/mL
  UACR, Mean: 27.90 g/kg
  UACR, Median: 11.10 g/kg
  UGCR, Mean: 60.12 mg/mg
  UGCR, Median: 57.96 mg/mg
[6]
  Achieving HbA1c target of <6.5%, odds ratio (logistic regression model): 1.27
  Achieving HbA1c target of <7%, odds ratio (logistic regression model): 1.17
  Change from baseline in FPG, ANCOVA LS mean difference: -3.49 mg/dL
  Change from baseline in body weight, ANCOVA LS mean difference: -0.15 kg
  Change from baseline in fasting C-peptide, ANCOVA LS mean difference: -0.01 ng/mL
  Therapeutic glycemic response 1, odds ratio (logistic regression model): 1.15
  Therapeutic glycemic response 2, odds ratio (logistic regression model): 0.98
  Therapeutic glycemic response 3, odds ratio (logistic regression model): 1.22
[7]
  Body weight, Mean: 66.19 kg
  Change from baseline in FPG, ANCOVA LS mean: -27.21 mg/dL
  Change from baseline in FPG, Mean: -26.31 mg/dL
  Change from baseline in FPG, Median: -20.00 mg/dL
  Change from baseline in body weight, ANCOVA LS mean: -3.15 kg
  Change from baseline in body weight, Mean: -3.09 kg
  Change from baseline in body weight, Median: -3.00 kg
  Change from baseline in fasting C-peptide, ANCOVA LS mean: -0.09 ng/mL
  Change from baseline in fasting C-peptide, Mean: -0.09 ng/mL
  Change from baseline in fasting C-peptide, Median: -0.07 ng/mL
  FPG, Mean: 113.03 mg/dL
  FPG, Median: 110.00 mg/dL
  Fasting C-peptide, Mean: 0.64 ng/mL
  Fasting C-peptide, Median: 0.63 ng/mL
  Subjects achieving HbA1c target of <6.5%, (%): 21.01%
  Subjects achieving HbA1c target of <7%, %: 66.39%
  body weight, Median: 65.10 kg
  Subjects achieving therapeutic glycemic response 2, %: 81.51%
  Subjects achieving therapeutic glycemic response 3, %: 78.15%
Week 24, per-protocol set, response 1 = HbA1c change >0.5% or HbA1c <7%, enavogliflozin 0.3 mg, dapagliflozin 10 mg
  Subjects achieving therapeutic glycemic response 1, %: 86.55%
